Values joined by “and” are separate entries in the source; they are usually repeats but may differ in a detail not shown here. Equal values may be shown once.
What was measured:
[1] = system: H. zea; assay: Feeding disruption assay, CryIAc in Trypan Blue diet (fresh diet); format: in vivo, Helicoverpa zea
Description: The blue diet used in the feeding disruption bioassay is an agar based insect meal containing 20 mg of Trypan Blue (Direct Blue 14; Matheson Coleman & Bell, Norwood, Ohio) per 100 ml of standard artificial diet, and containing different concentrations of CryIAc (MVP, Mycogen). Larvae feeding on this colored diet produced blue feces which were easily distinguished by observation from feces derived from other food sources. Assays were conducted in 1-ounce clear plastic cups (Solo Cup Company, Urbana, Ill.; approximately […] in diameter and ¾ inches high) fitted with white cardboard tops, which are routinely used for insect rearing in the inventors' laboratories. The clear plastic allowed for the observation of blue feces without opening the container.
The diagnostic concentration for resistance detection was also investigated for its ability to distinguish Wake susceptible H. virescens from H. zea. In addition, dose response studies were conducted to identify a concentration of Bt that would distinguish resistant YHD2 neonates of H. virescens from H. zea. Dose response studies were duplicated for 25 resistant (HD2) tobacco budworms and 25 bollworms from two generations at different doses of Bt ranging from 0 to 1000 μg CryIAc/ml of blue diet.

[2] = system: H. virescens; assay: Modified feeding disruption bioassay on MVP-hydrated meal pads, field strains; format: in vivo, Heliothis virescens; conditions: for percentage producing 0-2 fecal pellets over 24 h: 0.05 μg MVP per ml diet
Description: Trypan Blue (Direct Blue 14; Matheson Coleman and Bell, Norwood, Ohio) was blended with artificial diet, 20 mg dye per 100 ml diet. Blue diet aliquots were dispensed (100 μl per well) into 8-well microtiter plate strips (Nalge Nunc Int., Napersville, Ill.). The blue dye served as a marker of feeding on the assay diet, with larvae feeding on colored diet producing blue feces which were easily distinguished visually from feces derived from other food sources. Microtiter plate strips containing blue diet were frozen at −80° C. and lyophilized (Bench Top 6, Virtis, Gardiner, N.Y.; cold trap=−70° C., ˜200 mTorr, ambient temperature=23° C.) for a minimum of 24 h in order to form hydratable meal pads. Meal pads were stored in the dark in sealed plastic bags with desiccant prior to use.
Meal pads were hydrated with aqueous dilutions of the B. thuringiensis CryIAc δ-endotoxin formulation MVP (Mycogen, San Diego, Calif.) at least 1 h prior to the start of assays. Fresh diet aliquots (100 μl) consistently lost 78-84% of their water content by weight during the lyophilization process. Therefore, meal pads were hydrated with 80 μl of MVP in distilled water (treatments) or distilled water only (controls). The insecticide concentrations referenced throughout this paper are in μg MVP per ml of diet, i.e. the final concentration of insecticide in hydrated diet, which is 80% of the concentration of the solution used to hydrate the meal pads. Strip caps (Nunc) were cut into single caps in order to seal wells of the microtiter plate strips individually, which facilitated observation within wells while not allowing neighboring larvae to escape. In order to reduce condensation within the wells and provide larvae with air, caps were punctured twice with a #3 insect pin. Bioassays were conducted at 27±1° C. with a 14:10 (L:D) cycle, and blue fecal pellets were counted at 24 h. Neonates were used in all assays and were exposed to assay diets within 24 h of hatch. The results from each assay are taken from two replicates of each dose, with each replicate consisting of 24 larvae, one larva per well. Control (no dose) treatments were replicated three times. Dead larvae (defined as no movement for 30 s after prodding with a blunt probe) at the assay endpoint (24 h) were discarded and not included in the reported results. For each surviving larva, the number of fecal pellets produced was recorded. Serial dilutions of the MVP formulation were used for meal pad hydration, with separate dilution series prepared for each replicate.
Following 24 h exposure to diet containing a known concentration of MVP (Mycogen), a surviving larva was designated as a ‘feeder’ if it had produced more than two fecal pellets and as a ‘non-feeder’ otherwise. The cut-off value of two fecal pellets was adopted because this provided the clearest separation between species. Probit analyses were applied to the dichotomized fecal pellet counts in order to compare strains, between and within species, with respect to the feeding disruption response. A probit model was then used to relate the proportion of non-feeders to dose (on a log10 scale). Probit curves were fitted separately for each insect strain, and a NFC50 (non-feeding concentration50; log10 of the MVP concentration resulting in 50% non-feeders) and slope was obtained for H. zea. Also, probit curves were compared across species and among strains within species using PROC GENMOD with LINK=PROBIT (SAS 1993) on the data for all strains combined, and fitting effects for species, strains within species, log10 dose, as well as dose by species and dose by strain within species interactions.
Probit estimates of the proportion of feeders at the diagnostic concentration for each strain were used to predict the properties of an assay involving exposure of a small number, n, of larvae in individual wells for 24 h to diet containing a diagnostic concentration of the MVP formulation (final MVP concentration in diet 0.04 μg/ml). […]

[3] = system: H. virescens; conditions: Gould et al. 1995; cited from earlier work
[4] = system: H. virescens; assay: Seven day mortality assay on neonates, CryIAc in artificial diet
Description: Insects were reared in the laboratory at 27±1° C. with a 14:10 (light:dark) cycle on a standard artificial diet (Gould et al., 1995; Rose et al., 1995). The Wake strain of H. virescens used was originally collected in 1986 from tobacco in Wake county, N.C. The YHD2 strain was originally collected as eggs from seven tobacco fields in Yadkin County, N.C., in July of 1988. The YHD2 larvae were reared each generation for about seven days from egg hatch on 1000 μg of Bt toxin CryIAc (MVP, commercial grade, >98.0% δ endotoxin, Mycogen Corporation, San Diego) per ml of artificial diet and then transferred to insecticide-free diet for the remainder of development.
Mortality data were analyzed using probit analysis (PROC PROBIT, SAS 1991).

[5] = H. zea neonates, 0.032 μg CryIAc/ml diet, 24 hour

CryIAc: Bacillus thuringiensis CryIAc δ-endotoxin, commercial formulation MVP (Mycogen), >98.0% δ endotoxin
blue fecal pellets produced per larva [1, 5]: ≥ 7 blue fecal pellets | percentage producing ≧15 blue fecal pellets [1, 5]: 99% | percentage producing no blue feces ([1]; H. zea neonates, 500 μg CryIAc/ml blue diet, 24 hours): 100% | percentage producing 0-2 fecal pellets in 24 h ([1]; laboratory susceptible H. zea colony, 1000 μg MVP per ml diet): 98.0% | percentage of insects producing >10 fecal pellets ([2]; H. virescens field strains pooled, 0.04 μg MVP per ml diet, 24 h): < 1% | ps, probability of a larva being a feeder, most conservative probit estimate ([2]; H. virescens strains, diagnostic concentration 0.04 μg/ml, 24 h): 0.02 | percentage producing 0-2 fecal pellets over 24 h ([2]; Hv Franklin neonates): 100% | feeding response (>2 fecal pellets) ([2]; Hv Franklin, 0.04 μg MVP per ml diet, 24 h): 2.1% | percentage producing 0-2 fecal pellets over 24 h ([2]; Hv Johnston neonates): 95.5% | ps, feeding probability ([2]; Hv Quitman (south Georgia), 0.04 μg MVP per ml diet, 24 h): 0.15 | percentage producing >5 fecal pellets ([2]; Hv Quitman neonates, 0.04 μg MVP per ml diet, 24 h): 2.2% | percentage producing 0-2 fecal pellets over 24 h ([2]; Hv Quitman neonates): 95.5% | feeding response (>2 fecal pellets) ([2]; Hv Quitman, 0.04 μg MVP per ml diet, 24 h): 14.9% | percentage producing >5 fecal pellets ([2]; Hv Washington neonates, 0.04 μg MVP per ml diet, 24 h): 4.3% | percentage producing 0-2 fecal pellets over 24 h ([2]; Hv Washington neonates): 97.7% | fecal pellets produced per larva (none observed above) ([2]; all H. virescens field strains, 0.04 μg MVP per ml diet, 24 h): ≤ 11 fecal pellets | resistance of YHD2 strain to CryIAc compared to the Wake strain [3]: > 2000 fold | LC50 ([4]; Wake strain, neonates, seven day mortality): 0.0017 μg CryIAc/ml diet | LC50 ([4]; YHD2(female)×Wake(male) hybrid F1 larvae): 0.129 μg CryIAc/ml diet | LC50 ([4]; YHD2 strain, neonates, seven day mortality): 2952 μg CryIAc/ml diet and 2952.0 μg CryIAc/ml diet

From patent publication US6517856B1, “Insecticide resistance assay” (priority 1998, dated 2003)
